Assay results published in patent US5643907A, “Pharmaceutical composition containing 5-morpholinomethyl-3-(4-chlorobenzylideneamine)-2-oxazolidinone and its use for the treatment of CNS disorders” (priority 1993, dated 1997).
Counter-ions that a name gives are not always drawn.

Columns and labels:
[1] = tested on: uptake of noradrenaline; assay: Effect on the uptake of noradrenaline in vivo (protection from 6-OHDA); design: species or system rat
Procedure: The point of reference for measuring the inhibiting effect on the uptake of noradrenaline was the protection from the effect of 6-hydroxydopamine (6-OHDA), which was administered intraventricularly. Rats were applied intraventricularly 250 μg of 6-OHDA in the volume of 20 μl of 0,9% solution of […] and 0,1% solution of ascorbic acid. […] The animals were decapitated 7 days after and the level of noradrenaline in the whole brain was measured by the division on the Sephadex G-10 column and fluorimetric assay following oxidation.

[2] = tested on: uptake of serotonin; settings: 200 mg/kg before p-CA; control 353 ± 117, 7
[3] = tested on: uptake of serotonin; assay: Effect on the uptake of serotonin in vivo (protection from p-chloramphetamine)
[4] = tested on: process of learning and memorising; assay: Effect on the process of learning and memorising (conditioned jump on a bar); assay type: in vivo, rat
[5] = tested on: mice premedicated with pargyline; assay: Intensification of L-dopa effects in mice premedicated with pargyline; assay type: in vivo, mouse; settings: for Reaction of mice according to score: L-dopa 200 mg/kg i.p. after pargyline, control 1-2
Procedure: 3) The intensification of L-dopa effects in mice premedicated with pargyline.
Three hours after the oral administration of pargyline in the dosage of 40 mg/kg, there was applied orally either the examined preparation or IMI, followed after one hour by L-dopa administered intraperitoneally in the dosage of 200 mg/kg. The behaviour of the mice was evaluated according to the following 5-level score:
1 - piloerection, Straub's tail, exophtalmos of eyes, minute salivating, irritability.
2 - as above + translocations, single jumps.
3 - as above + bigger incitement of mobility, frequent jumps, climbing, single squeaks.
4 - as above + great incitement of mobility, aggresion, fights.
5 - as above + maximum incitement of mobility and aggresion

[6] = tested on: beta-adrenergic receptor; assay: Influence of chronic administration on concentration of beta-adrenergic cerebral receptors in vivo (3H-dihydroalprenolol bonding to cerebral cortex membranes); design: species or system rat; settings: chronic
Procedure: Rats were administered the examined preparation in the form of intraperitoneally injection and the dosage of 200 mg/kg twice daily for six weeks. In the same empirical system IMI was examined in the dosage of 10 mg/kg. The animals were killed 24 hours after the last injection and their cerebral cortexes were skeletonized.
The population of the beta-adrenergic receptor was characterised by the examination of the parameters of the ^3 H-dihydroalprenolol (^3 H-DHA) bonding to the membranes (fractiom P2) of the cerebral cortex. The tissue was homogenised in 20 volumes of the 50 mM buffer TRIS-HCl, pH 7,6 in the Polytron disintegrator (position 4,155) and centrifuged at 1000 g for 10 minutes. The supernatant was decanted and again centrifuged at 25000 for 20 minutes. The operations were conducted in the temperature of 0°-4° C. The precipitate, after the second centrifugation, decanting and removing the supernatant, was kept in the temperature of -18° C. until the time of incubation (no longer than 48 hours). The final fraction P2 was obtained by the subsequent process of the sediment homogenisation in such a volume of 50 mM buffer TRIS-HCl, pH 7,6, that the final concentration of protein amounted to 1,5 mg/ml.
The incubation mixture, containing 450 μl of the fraction P2 suspension, 50 μl of the ^3 H-DHA solution (6 different solutions; the final concentrations in the mixture […]) and 50 μl of buffer or propranolol solution (the final concentration in the sample […]) was incubated for 30 minutes in the temperature of 25° C. The incubation was finished by filtrating the suspension through filters made of glass fibres. The filters were twice rinsed with 5 ml of cold (0° C.) buffer TRIS-HCl, pH 7,6, and placed in scintillation minivessels, to which Bray's liquid was added. The radioactivity was measured by the Packard scintillation counter, model B329 with the efficiency of 36-37%.
The specific bonding was defined as the radioactivity difference between the samples incubated in the absence of propranolol (complete bonding) and in the presence of 10 μM of propranolol (blank). The data from the counter […] were recalculated individually into the decay frequence […], calculating it from the individual efficiency of each sample, received from the relation of impulses in the canals A and B. Bmax value and the constant of dissociation KD was calculated from the Scatchard diagrams, which were rectilinear.

[7] = tested on: mice in the conditions of hypoxia; assay: Effect on the time of survival in the conditions of hypoxia; assay type: in vivo, mouse; settings: for The number of mice surviving in the conditions of hypoxia: surviving/complete number
Procedure: The examined preparation was applied i.o. in the dosages 5, 10, 50, 75, 100 mg/kg 60 minutes before the beginning of the experiment. The experiment lasted until 0-3 animals survived in the control group. Subsequently oxygen was let in and finally normal air. The number of animals which survived in the control group was compared to the number of animals in the group administered the examined preparation. The number of surviving mice is presented in relation to the complete number of examined mice.

[8] = tested on: reserpine pretreated mice; assay: Intensification of L-Dopa effects in reserpine pretreated mice; assay type: in vivo, mouse
Procedure: 2) The intensification of L-Dopa effects in reserpine pretreated mice.
The examined preparation was administered to mice p.o. in the dosages of 40 and 200 mg/kg 17 hours after reserpine in the dosage of 2,5 mg/kg had been administered intraperitoneally. After one hour L-dopa was injected in the dosage of 300 mg/kg. The intensification of L-dopa anti-reserpine action was evaluated according to the following parameters of the animals behaviour: mobility, irritability, ptosis and body temperature. According to the same empirical system IMI was examined in the dosages of 8 and 40 mg/kg.

[9] = tested on: rats behaviour; assay: Influence on the rats behaviour in "despair test" (Porsolt), immobility period; assay type: in vivo, rat; settings: for The immobility period, % of control: twice
Procedure: 1) The influence on the rats behaviour in "despair test".
The rats were placed separately in upright, metallic cylindrical containers, 60 cm high and 18 cm in diameter, containing 15 centimeters of water, at a temperature of 25° C. […] After 24 hours the rats were dived in water again and for 5 minutes the complete immobility period was measured. The examined preparation (containing 5-morpholinomethyl-3-(4-chlorobenzylideneamine)-2-oxazolidinone hydrochloride) or imipramine (IMI) was administered per os twice: at 24 hours and one hour before the beginning of the observation.

[10] = mice premedicated with pargyline

SMILES: O=C1OC(CN2CCOCC2)CN1N=Cc1ccc(Cl)cc1 (centres unmarked) [Examined preparation, 5-morpholinomethyl-3-(4-chlorobenzylideneamine)-2-oxazolidinone hydrochloride]
- noradrenaline, % in relation to the group after chemosympathectomy ([1]; 40 (mg/kg) before 6-OHDA): 92%
- noradrenaline, % in relation to the group after chemosympathectomy ([1]; 200 (mg/kg) before 6-OHDA): 155%
- Concentration of noradrenaline in the brain X ± SEM ([1]; 200 (mg/kg) before 6-OHDA, control 205 ± 10, 5): 148 ± 24, 9 mg/kg tissue
- inhibiting the uptake of noradrenaline ([1]; high dosages): proves effective in inhibiting the uptake of noradrenaline
- inhibition of the effect of 6-OHDA compared with IMI ([1]; higher dosage): inhibits it almost as effectively as IMI
- prevention of the effect of 6-OHDA ([1]; low dosage): does not prevent the effect of 6-OHDA completely
- Concentration of serotonin in the brain X ± SEM [2]: 367 ± 30, 1 mg/kg tissue
- serotonin, % in relation to the group after p-chloramphetamine ([3]; 40 mg/kg before p-CA): 107%
- serotonin, % in relation to the group after p-chloramphetamine ([3]; 200 mg/kg before p-CA): 172%
- prevention of the p-chloramphetamine effect ([3]; high dosage): prevented the p-chloramphetamine effect completely
- effect on the washing-out action of p-chloramphetamine ([3]; low dosage): did not produce any effects on the washing-out action of p-chloramphetamine
- process of learning ([4]; 5 mg/kg i.p. everyday): accelerates the process of learning
- effect on learning compared with piracetam and pyritinol ([4]; 5 mg/kg i.p. vs piracetam 100 mg/kg, pyritinol 100 mg/kg): weaker than the effect of piracetam, but stronger than the effect of pyritinol
- Reaction of mice according to score ([5]; 10 mg/kg p.o.): 5
- Reaction of mice according to score ([5]; 20 mg/kg p.o.): 5
- Reaction of mice according to score ([5]; 40 mg/kg p.o.): 5
- Reaction of mice according to score ([5]; 200 mg/kg p.o.): 3-4
- mobility and emotion incitement ([5]; after the dosages of 10, 20 and 40 mg/kg): strongest mobility and emotion incitement
- effectiveness compared with IMI [5, 10]: stronger effectiveness than IMI
- intensification of L-dopa effects [5, 10]: very strong intensification of L-dopa effects
- Bmax, % of control ([6]; 40 mg/kg daily dosage): 67%
- KD, % of control ([6]; 40 mg/kg daily dosage): 63%
- Bmax, % of control ([6]; 200 mg/kg daily dosage): 72%
- KD, % of control ([6]; 200 mg/kg daily dosage): 68%
- effect on the concentration of receptors, compared with imipramine ([6]; both dosages): did not differ considerably
- constant of dissociation value KD / beta-adrenergic receptor affinity ([6]; both dosages, as distinct from imipramine): statistically considerable decline of the constant of dissociation value KD and consequently the increase of the beta-adrenergic receptor affinity
- The number of mice surviving in the conditions of hypoxia ([7]; 5 mg/kg, control 7/40, p n.d.): 5/40
- The number of mice surviving in the conditions of hypoxia ([7]; 10 mg/kg, control 5/40, p n.d.): 6/40
- The number of mice surviving in the conditions of hypoxia ([7]; 50 mg/kg, control 9/60, p <0, 01): 23/60
- The number of mice surviving in the conditions of hypoxia ([7]; 75 mg/kg, control 9/60, p <0, 01): 28/60
- The number of mice surviving in the conditions of hypoxia ([7]; 100 mg/kg, controls: Examined 9/60 (p <0, 01), Piracetam 7/40 (n.d.), Pyritinol 8/60 (p <0, 01)): 47/60
- time of mice survival in the conditions of hypoxia ([7]; in comparison to piracetam and pyritinol): prolongs the time of mice survival in the conditions of hypoxia
- irritability and incitement, second phase ([8]; 200 mg/kg, after 90 minutes): there appeared irritability and big incitement, which lasted over an hour
- body posture (righting) reflex ([8]; 200 mg/kg, first hour after the application): loss of body posture (righting) reflex
- effectiveness of smaller versus bigger dosage ([8]; 40 vs 200 mg/kg): A smaller dosage proved to be more effective than a bigger one
- effect on ptosis, hypothermy, mobility and irritability ([8]; reserpine pretreated mice + L-dopa): reduced ptosis and hypothermy and raised the animals' mobility and irritability
- intensification of the behavioural effects of L-dopa ([8]; reserpine pretreated mice, compared with IMI): intensified the behavioural effects of L-dopa action in reserpine pretreated mice in the same way as IMI
- The immobility period, % of control ([9]; 40 mg/kg p.o.): 89%
- effect on immobility compared with IMI (20 mg/kg) ([9]; 200 mg/kg): equals approximately to the effect of IMI (20 mg/kg)
- shortened the rats' immobility period in relation to the control group ([9]; 200 mg/kg): 18%
- The immobility period, % of control ([9]; 200 mg/kg p.o.): 82%
